Laboratory results reported in US5470852A, “Tetrahydroprotoberberine quaternary ammonium compounds useful in for treating arrhythmia” (priority 1991, dated 1995).
Like-named read-outs stand apart in the source and are kept apart here.

Experiments:
[1] = system: dogs; assay: Ouabain-induced arrhythmia in dogs; assay type: in vivo, dog; conditions: for Incidence of arrhythmia: I13 iv 3 mg/kg, lidocaine iv 12 mg/kg
Experimental: (iv, 12 mg/kg) on ouabain induced arrhythmia in dogs
(Ouabain administration for 30 min)

[2] = system: pathological papillary muscles in rats (cardiomyopathy); assay: Action potential in papillary muscles of rats with cardiomyopathy (L-thyrotoxin); assay type: cell-based, rat
From the text: Effect of I13 (μ mol/L) on estimates of action potential induced in
normal and pathological papillary muscles in rats.

[3] = system: anaesthetized rats; conditions: for Arrhythmic scores / Lethal risk / Antiarrhythmic effect: X ± SD; for Incidence of VF: n=10; for Death / animals with VF / animals without VF: of n=10
[4] = cardiomyopathy, n=5, I13 concentration not given

## COc1ccc2c(c1OC)C[N+]1(Cc3ccc(Cl)cc3)CCc3cc4c(cc3C1C2)OCO4 (centres unmarked) [Compound I13, 7-(4-chlorobenzyl)-5,8,13,13a-tetrahydroberberine chloride]
[1]; 0 min (before administration)
  Incidence of arrhythmia: 97 ± 5%
[1]; 5 min
  Incidence of arrhythmia: 83 ± 22%
[1]; 10 min
  Incidence of arrhythmia: 72 ± 31%
[1]; 15 min
  Incidence of arrhythmia: 59 ± 36%
[1]; 20 min
  Incidence of arrhythmia: 45 ± 43%
[1]; 25 min
  Incidence of arrhythmia: 40 ± 38%
[1]; 30 min
  Incidence of arrhythmia: 27 ± 34%
[1]; 35 min
  Incidence of arrhythmia: 26 ± 34%
[1]; 40 min
  Incidence of arrhythmia: 14 ± 33%
[1]; 45 min
  Incidence of arrhythmia: 12 ± 31%
[1]; 50 min
  Incidence of arrhythmia: 11 ± 28%
[1]; 60 min
  Incidence of arrhythmia: 8 ± 20%
[1]; dogs
  inhibition of ouabain-induced arrhythmias: markedly inhibited
[1]; i.v. gtt. 0.1 mg/kg/min for 30 mins vs lidocaine 0.4 mg/kg/min
  antiarrhythmic effect compared with lidocaine: the same antiarrhythmic effect as lidocaine
[1]; ouabain, dogs
  anti-arrhythmic activity relative to lidocaine: 4 times
[1]; within 4 hour period
  reoccurrence of arrhythmia: lack of reoccurrence of arrhythmia within a 4 hour period
[2]; L-thyrotoxin, rats
  Vmax in cardiomyopathy model: completely inhibited
[2]; [4]
  APA: 104 ± 7 mv
  APD20: 12 ± 3 ms
  APD50: 32 ± 4 ms
  APD90: 65 ± 5 ms
  ERP: 66 ± 6 ms
  RP: 81 ± 5 mv
  Vmax: 160 ± 50 v/s
[3]; i.v.
  anti-arrhythmic activity relative to lidocaine: 10 times
[3]; i.v. or p.o.
  inhibition of arrhythmias and VF induced by left coronary artery ligation: significantly inhibited
[3]; iv 0.1 mg/kg
  Arrhythmic scores: 2.4 ± 2.2
  Lethal risk: 75 ± 30
  Incidence of VF: 30%
  Death: 3
  animals with VF: 3
  animals without VF: 4
[3]; iv 0.1 mg/kg, coronary occlusion 5 min
  Antiarrhythmic effect: 0.25 ± 0.26
[3]; iv 0.1 mg/kg, coronary occlusion 10 min
  Antiarrhythmic effect: 1.7 ± 2.1
[3]; iv 0.1 mg/kg, reperfusion 0.17 min
  Antiarrhythmic effect: 2.2 ± 2.5
[3]; iv 0.1 mg/kg, reperfusion 0.33 min
  Antiarrhythmic effect: 2.1 ± 2.1
[3]; iv 0.1 mg/kg, reperfusion 0.5 min
  Antiarrhythmic effect: 2.4 ± 2.2
[3]; iv 0.1 mg/kg, reperfusion 1 min
  Antiarrhythmic effect: 2.3 ± 2.6
[3]; iv 0.1 mg/kg, reperfusion 2 min
  Antiarrhythmic effect: 1.6 ± 2.1
[3]; iv 0.1 mg/kg, reperfusion 3 min
  Antiarrhythmic effect: 1.6 ± 2.1
[3]; iv 0.1 mg/kg, reperfusion 5 min
  Antiarrhythmic effect: 1.6 ± 2.1
[3]; iv 0.1 mg/kg, reperfusion 6 min
  Antiarrhythmic effect: 2.4 ± 3.4
[3]; iv 0.1 mg/kg, reperfusion 7 min
  Antiarrhythmic effect: 0.20 ± 0.26
[3]; iv 0.1 mg/kg, reperfusion 10 min
  Antiarrhythmic effect: 0.42 ± 0.19
[3]; iv 0.1 mg/kg, reperfusion 15 min
  Antiarrhythmic effect: 0.42 ± 0.19
[3]; iv 0.1 mg/kg, reperfusion 25 min
  Antiarrhythmic effect: 0.43 ± 0.19
[3]; iv 0.3 mg/kg
  Arrhythmic scores: 1.2 ± 1.7
  Lethal risk: 57 ± 26
  Incidence of VF: 20%
  Death: 1
  animals with VF: 2
  animals without VF: 7
[3]; iv 0.3 mg/kg, coronary occlusion 5 min
  Antiarrhythmic effect: 0.6 ± 1.3
[3]; iv 0.3 mg/kg, coronary occlusion 10 min
  Antiarrhythmic effect: 0.9 ± 1.9
[3]; iv 0.3 mg/kg, reperfusion 0.17 min
  Antiarrhythmic effect: 0.9 ± 1.3
[3]; iv 0.3 mg/kg, reperfusion 0.33 min
  Antiarrhythmic effect: 1.3 ± 2.0
[3]; iv 0.3 mg/kg, reperfusion 0.5 min
  Antiarrhythmic effect: 1.2 ± 1.7
[3]; iv 0.3 mg/kg, reperfusion 1 min
  Antiarrhythmic effect: 0.8 ± 1.8
[3]; iv 0.3 mg/kg, reperfusion 2 min
  Antiarrhythmic effect: 0.8 ± 1.8
[3]; iv 0.3 mg/kg, reperfusion 3 min
  Antiarrhythmic effect: 0.22 ± 0.26
[3]; iv 0.3 mg/kg, reperfusion 5 min
  Antiarrhythmic effect: 0.6 ± 1.2
[3]; iv 0.3 mg/kg, reperfusion 6 min
  Antiarrhythmic effect: 0.8 ± 1.8
[3]; iv 0.3 mg/kg, reperfusion 7 min
  Antiarrhythmic effect: 0.8 ± 1.8
[3]; iv 0.3 mg/kg, reperfusion 10 min
  Antiarrhythmic effect: 0.8 ± 1.8
[3]; iv 0.3 mg/kg, reperfusion 15 min
  Antiarrhythmic effect: 1.0 ± 2.2
[3]; iv 0.3 mg/kg, reperfusion 25 min
  Antiarrhythmic effect: 0.2 ± 0.4
[3]; iv 1.0 mg/kg
  Arrhythmic scores: 1.3 ± 1.7
  Lethal risk: 41 ± 0
  Incidence of VF: 0%
  Death: 0
  animals with VF: 0
  animals without VF: 10
[3]; iv 1.0 mg/kg, coronary occlusion 5 min
  Antiarrhythmic effect: 0.4 ± 0.2
[3]; iv 1.0 mg/kg, coronary occlusion 10 min
  Antiarrhythmic effect: 0.4 ± 0.2
[3]; iv 1.0 mg/kg, reperfusion 0.17 min
  Antiarrhythmic effect: 1.4 ± 1.4
[3]; iv 1.0 mg/kg, reperfusion 0.33 min
  Antiarrhythmic effect: 3.2 ± 2.0
[3]; iv 1.0 mg/kg, reperfusion 0.5 min
  Antiarrhythmic effect: 1.6 ± 1.6
